“Also recorded” adds a separate entry of the source.
Columns and labels:
[1] = tested on: human melanoma cells; test: GFP-infected human melanoma cells injected into recipient mice; settings: mouse
Experimental: FIG. 15A—Melanoma cell were injected into recipient mice. […] Representative image 6 days after first treatment. FIG. 15B—quantification of tumor development indicates inhibition of tumor size in response to caspase-3 inhibition. FIG. 15C—Extracted tumors were analyzed for proliferation using the Ki67 marker and the presence of GFP^+ melanoma cells. FIG. 15D—Tumors treated with the caspase-3 activator ABT-199 result in a dramatic increase in tumor mass. […] Scale bars, 20 μm.
Examination of the effect of caspase-3 inhibition on melanoma formation in vivo—For this aim human melanoma cells were stably infected with GFP. Cells were then injected into to recipient mice and the effect of administrating caspase-3 inhibitors was monitored.

[2] = tested on: murine melanoma cell line B16F10; test: B16F10 melanoma tumors in mice
Excerpt: FIG. 21E—Resected tumors stained for the proliferative marker Ki67 (red). […] Denotation: CP3, Caspase-3. ** (P<0.01), *** (P<0.001).
FIG. 22C—A histogram displaying quantification of tumor weight (mg) in treated (with Ivachtin) and non-treated (DMSO) animals. […] FIG. 22E—A histogram depicting quantification of Ki67^+ melanoma cells in vivo after treatment with Ivachtin. […] FIG. 22G—A histogram depicting quantification of TUNEL^+ melanoma cells. Denotation: CP3, Caspase-3. Scale bars: 10 μm (FIGS. 22D and 22F). * (P<0.05).

[3] = tested on: YAP; test: YAP nuclear translocation and pYAP levels in EGFPhigh SGPZ cells; assay type: cell-based, mice; settings: immunoblot
Experimental: Cell culture—The HaCaT and HEK293 cell lines were cultured in DMEM medium supplemented with 10% FBS, 1% P/S (Pen/Strep) and 1% L-glutamine. Integrin α6^+CD34^+ HFSCs and integrin α6^+CD34^−EGFP^high SGPZ cells were isolated and cultured in HFSC media on sustaining J2 feeder cells. Serum was chelated for a calcium concentration of 50 μM. […] Cells were fixed in 4% PFA for 10 minutes for immunofluorescence analysis or harvested for protein or RNA extraction.
Given that Caspase-3 inhibition hindered cell number and proliferation in vitro the present inventors next examined whether this was mediated via YAP in EGFP^high SGPZ cells using K15^+ SGPZ cells. […] Similar findings as to effect of caspase-3 inhibition on YAP activation and proliferation were also obtained in HaCaT and Hek293E3 cells (FIGS. 3J-K, FIGS. 11B-F).

[4] = tested on: sebaceous gland (SG); test: Sebaceous gland (SG) size and cell proliferation in mice injected subcutaneously with caspase-3 inhibitors or activators; assay type: in vivo; settings: for SG size: eight week old mice; for SG size / cell proliferation / proliferative rates in the SG: subcutaneous injection for 7 days; for cell proliferation / proliferative rates in the SG / caspase-3 activation in the SG: mice; for caspase-3 activation in the SG: subcutaneous injection for seven days
Experimental: Immunofluorescence—Skins were embedded in OCT, frozen, sectioned, and fixed in 4% paraformaldehyde. Tail samples were treated with 5 mM EDTA for 4 hours at 37° C. to separate skin epithelium from dermis and fixed in formal saline for 2 hours at room temperature. Dorsal samples were treated with 5 mM EDTA for 6 hours at 37° C. to separate skin epithelium from dermis and fixed in formal saline for 1 hour at room temperature. Samples were blocked for 2 hours in Blocking buffer consisting of 10% Goat serum, 2% BSA, 0.2% Triton-X. Primary antibodies were diluted in blocking buffer and tissue/sections were incubated overnight at 4° C. Whole mounts or sections were washed at least 3 times with PBS. Secondary antibodies were incubated for 1 hour at room temperature followed by 4 washes with PBS. The following primary antibodies were used: YAP (Rabbit, 1:100, Cell Signalling, Mouse 1:100 Santa Cruz), pYAP (Rabbit, 1:100 Cell Signalling), α-E-Catenin (Rabbit, 1:100, Cell Signalling), Ki67 (Rabbit, 1:100, Abcam; Rat, 1:100, eBioscience), CD34 (Rat, 1:100, eBioscience), K15 (Mouse, 1:100, Thermo, Chicken, 1:1000, Abcam), Sox9 (Rabbit, 1:100, Millipore, Goat, 1:50, Santa Cruz). Cleaved-Caspase-3 (Rabbit, 1:100, Cell signalling), Phalloidin (1:250, Life Technologies). TUNEL was performed using ApopTag TdT (Millipore). […] Analysis was performed on Zeiss LSM 880 confocal microscope.

[5] = tested on: integrin α6+CD34+ HFSCs, HaCaT keratinocytes and Hek293E3 cells; test: Expansion of other cell types treated with caspase-3 inhibitors; assay type: cell-based
Excerpt: In order to examine whether Caspase-3 affects the expansion of other cell types the present inventors isolated integrin α6^+CD34^+ HFSCs from second telogen mice.

[6] = tested on: excision wounds (1 cm^2) on dorsal skin; test: Wound repair of full thickness excision wounds on dorsal skin; assay type: in vivo, mice
Excerpt: For all wound repair experiments, mice were sedated with isofluorane. Mice were shaved with electric clippers and treated topically with a hair removal cream for a few minutes (Nair). Full-thickness excision wounds (1 cm^2) were generated on the dorsal skins and monitored for wound coverage. PWI, mice were individually housed. At the desired time PWI, mice were euthanized with CO2 and the wounded skins were harvested and either embedded in OCT or prepared for whole mounts as described above or for protein extraction.
Inhibition of caspase-3 impairs wound repair—Since YAP is known to play a chief role in regeneration (34), the present inventors investigated whether in vivo inhibition of Caspase-3 affects the wound repair dynamic by modulating YAP activity. […] Full thickness excision wounds (1.0 cm^2) were generated on the dorsalbacks and monitored for wound coverage. In control mice, three days post wound infliction (PWI) the wound size was reduced by 60% while in Ivachtin and z-DEVD-fink (SEQ ID NO: 71) treated mice, it was reduced by only 10% and 20%, respectively (FIG. 5A and FIG. 5B).

[7] = tested on: B16F10 melanoma cells; test: B16F10 melanoma cells in vitro: growth, Ki67, pYAP, α-Catenin; assay type: cell-based
Excerpt: FIG. 23D—A histogram depicting quantifications of 501-A total cells number after treatment with Z-DEVD-fink (SEQ ID NO: 71). FIG. 23E—Images depicting B16F10 melanoma cells stained for Ki67 (red), active cleaved Caspase-3 (green) and nuclear counterstain DAPI (blue). […] Insets are zoom in on specific cells, Denotation: CP3, Caspase-3. Scale bars: 100 μm. ** (P<0.01), *** (P<0.001).
FIG. 24A—Images depicting B16F10 melanoma cells stained for pYAP (red). […] FIG. 24D—Images depicting B16F10 melanoma cells stained for α-Catenin (green). […] FIG. 24E—Immunoblot analysis of proteins isolated from B16F10 melanoma cells using antibodies against pYAP, α-Catenin and α-Tubulin as control.

[8] = tested on: integrin α6+CD34−EGFPhigh SGPZ cells; test: Proliferation and expansion of isolated SGPZ cells treated with caspase-3 inhibitors; assay type: cell-based, mice
Experimental: Flow Cytometry—SGPZ cell isolation and FACS analysis were performed with K15-EGFP mice and CD34, integrin α6 and Sca1 antibodies. K15-GFP^high cells were isolated from ears and dorsal skin of 8-week old B6.Cg-Tg(Krt1-15-EGFP)2Cot/J mice.

[9] = tested on: YAP; test: Nuclear YAP and Ki67 in SGs of mice treated with PAC-1 and/or Verteporfin; assay type: in vivo
Excerpt: Therefore, the present inventors investigated whether SG homeostasis is governed by YAP activity in a caspase-3 dependent manner. For this aim the present inventors employed the YAP chemical inhibitor, Verteporfin, which is known to inhibit the interaction between YAP and TEAD in the nucleus and block transcriptional activity (reference 42). The present inventor administered Verteporfin either alone or in combination with the caspase-3 activator PAC-1.

[10] = tested on: XIAP; test: XIAP expression in treated mice; assay type: in vivo; settings: for XIAP levels: treated mice
Excerpt: In Drosophila, Yorkie (Yki) the homolog of YAP directly regulates the transcription of Death-associated inhibitor of apoptosis 1 (Diap1), which is the functional equivalent of XIAP [Fuchs, Y. & Steller, H. Programmed cell death in animal development and disease. Cell 147, 742-758 (2011); Zhang, L., et al. The TEAD/TEF family of transcription factor Scalloped mediates Hippo signaling in organ size control. Developmental cell 14, 377-387 (2008)]. Therefore, and without being bound by any theory, the present inventors hypothesized that in the SG, XIAP might be transcriptionally regulated by YAP to balance caspase-3 activity. […] Moreover, XIAP protein levels were increased upon caspase-3 activation with PAC-1, but this effect was abolished when YAP was inhibited (FIG. 29D).

[11] = tested on: XIAP; test: XIAP protein and mRNA levels in EGFPhigh SGPZ cells; assay type: cell-based, mice
Experimental: RNA extraction, reverse transcription and real-time PCR (RT-PCR)—RNA was isolated using Trizol (Sigma) and up to 2 μg of RNA were subjected to cDNA synthesis (Applied Biosystems). Real time PCR was carried out using the PerfeCTa SYBR Green FastMix (Quanta), with gene-specific primers [RpLp0 […] (SEQ ID NO:50) and […] (SEQ ID NO:51); WTIP […] (SEQ ID NO:52) and […] (SEQ ID NO:53); ErbB4 […] (SEQ ID NO:54) and […] (SEQ ID NO:55); HOXC13 […] (SEQ ID NO:56) and […] (SEQ ID NO:57); HOXA5 […] (SEQ ID NO:58) and […] (SEQ ID NO:59)]. Amplicon levels were analysed in triplicate and quantitated relative to a standard curve comprising cDNA, and values normalized to levels of the housekeeping gene (Rplp0 or Gapdh). Reactions were: 3 minutes at 95° C., then 40 cycles of 10 seconds at 95° C. and 30 seconds at 60° C. with addition of melt curve step: 10 seconds at 95° C., and increments of 0.5° C. every 5 seconds between 65° C. to 95° C.
In Drosophila, Yorkie (Yki) the homolog of YAP directly regulates the transcription of Death-associated inhibitor of apoptosis 1 (Diap1), which is the functional equivalent of XIAP [Fuchs, Y. & Steller, H. Programmed cell death in animal development and disease. Cell 147, 742-758 (2011); Zhang, L., et al. The TEAD/TEF family of transcription factor Scalloped mediates Hippo signaling in organ size control. Developmental cell 14, 377-387 (2008)]. […]

[12] = tested on: α-Catenin; test: Immunoblot of α-Catenin in EGFPhigh SGPZ cells; assay type: cell-based, mice; settings: extracts from EGFPhigh SGPZ cells
[13] = tested on: α-Catenin; test: α-Catenin levels in vivo after caspase-3 inhibition or activation; set-up: species or system mice; settings: Western blot and immunofluorescence
Experimental: TUNEL was performed using ApopTag TdT (Millipore). […] Analysis was performed on Zeiss LSM 880 confocal microscope.
The levels of α-Catenin are known to be a critical factor in the regulation of YAP (27). In low confluent cells, diminished levels of α-Catenin serve as a mechanotransduction mechanism that instructs the nuclear translocation of YAP and drives proliferation (27, 33). […] The present inventors therefore examined the levels of α-Catenin both in vitro and in vivo, by employing both Western blot analysis and immunofluorescence.

[14] = tested on: de novo regenerated SGs; test: De novo SG regeneration from the wound bed after full thickness excision wounds; assay type: in vivo, mice; settings: for size and maturation of regenerated SGs: regenerating skin after wounding
Experimental: The wound healing process can stimulate de novo regeneration of HFs and SGs (reference 35). As such, the present inventors utilized this model to examine whether caspase-3 activation can drive SG development and maturation. Eight-week old mice were injected with DMSO, PAC-1 or PAC-1 along with Verteporfin for two days prior to wound infliction. Full thickness excision wounds (1 cm^2) were generated on the dorsalskins and skin samples were harvested 20 and 30 days post wound infliction. […] Importantly, YAP inhibition reversed these regenerative phenotypes, leading to a 10-fold reduction in the number of de novo formed SGs (FIGS. 17D and E).

## CC1(C)CCC(CN2CCN(c3ccc(C(=O)NS(=O)(=O)c4ccc(NCC5CCOCC5)c([N+](=O)[O-])c4)c(Oc4cnc5[nH]ccc5c4)c3)CC2)=C(c2ccc(Cl)cc2)C1 [ABT-199]
[1]
  tumor expansion by in vivo imaging: dramatically expanded
[1]; in vivo
  tumor mass: two-fold increased
[2]; established B16F10 tumors
  tumor volume and weight: increased in volume and weight
[2]; mouse, in vivo
  proliferation (Ki67) in resected tumors: higher proliferation; also recorded: high levels of proliferation
  tumor size: dramatic increase in size
[2]; staining
  activated cleaved Caspase-3 in resected tumors: higher expression
[3]
  levels of pYAP: significantly decreased
[4]
  SG size: significant increase
  cell proliferation / proliferative rates in the SG: significant increase
  caspase-3 activation in the SG: significant increase

## CC(=O)OCCN1C(=O)c2c(C)nc3ccc(S(=O)(=O)N4CCOCC4)cc3c2C1=O [Ivachtin]
[2]; established B16F10 tumors
  tumor weight: decrease in tumor weight
[2]; mouse, in vivo
  YAP positive cells in resected tumors: significant decreases
  cell death by TUNEL assay in resected tumors: enhanced cell death
  proliferation (Ki67) in resected tumors: reduced expression; also recorded: attenuated proliferation
  tumor size: smaller tumors
[5]; daily treatment
  expansion of cells: impaired the expansion
[5]; not supplemented daily
  effect on expansion of cells: very limited effect
[6]; 5-7 days PWI
  levels of α-Catenin in wounded skin / invading keratinocytes: increased α-Catenin levels
[6]; 7 days PWI, Western blot
  cleavage of α-Catenin in wounded dorsalskin: impairment in cleavage
[6]; 12 days PWI
  number of nuclear YAP and Ki67 cells: decreased number
[6]; FIGS. 19A-F
  wound closure: significant decrease
[6]; Ivachtin, Verteporfin or both
  effect of combining caspase-3 and YAP inhibition on wound healing: no additive effect
[6]; daily subcutaneous injection
  healing at all time points: less efficient
[6]; three days post wound infliction, injected from 2 days prior to wounding
  wound size reduced by: 10%
[4]; 20 and 30 days post injection
  size of the SG, length, width and number of proliferating cells: returned to normal
[4]
  SG size: decrease in SG size
  cell proliferation / proliferative rates in the SG: impaired proliferative rates; also recorded: significant decrease
[7]; compared to DMSO
  phosphorylated YAP-positive cells (pYAP+): significant increases
[7]; continuous presence of inhibitor
  growth of B16F10 melanoma cells: hindered
[8]; immunostaining, Ivachtin daily, five days
  number of cells positive for proliferative markers Ki67 and PCNA: three-fold decrease
[8]; not supplemented daily
  effect on cell number and colony formation: very limited effect
[8]; supplemented daily
  cellular expansion (proliferation and cell number): significant impairment

## C=CCc1cccc(/C=N/NC(=O)CN2CCN(Cc3ccccc3)CC2)c1O [PAC-1]
[9]; PAC-1 alone
  numbers of nuclear YAP+/Ki67+ cells in SGs: higher numbers
[10]
  XIAP levels: increased
[11]; EGFPhigh SGPZ cells
  XIAP levels: increase in XIAP levels
[3]
  levels of pYAP: significantly decreased
[12]
  levels of full length α-Catenin: decreased levels
  ~90 kDa and ~85 kDa α-Catenin bands (cleaved): much higher levels
[13]
  levels of α-Catenin: decreased levels
[6]; 7 days PWI
  number of nuclear YAP and Ki67 cells: increased number
[6]; PAC-1 injected daily subcutaneously
  wound healing compared with control: healed significantly faster than control
[4]
  SG size: significant increase
  cell proliferation / proliferative rates in the SG: significant increase
  caspase-3 activation in the SG: significant increase
[14]; 20 and 30 days post wound infliction
  number of regenerated de novo SGs: striking increase
[14]
  size and maturation of regenerated SGs: significantly larger and more developed SGs

## Verteporfin
[9]; Verteporfin in combination with PAC-1
  proliferative effect of PAC-1 (Ki67+ cells in SGs): able to overcome the positive proliferative effect of PAC-1
[9]; Verteporfin treatment
  nuclear translocation of YAP: did not affect
[10]; PAC-1 with Verteporfin
  PAC-1 induced increase of XIAP protein levels when YAP was inhibited: abolished
[10]
  XIAP levels: decrease in XIAP levels
[11]; RNA from EGFPhigh SGPZ cells
  XIAP mRNA levels, lower compared to control cells: 2 fold
[6]; PAC1 with VP
  increased repair by PAC1 under YAP inhibition: could be revered
[14]
  size and maturation of regenerated SGs: did not develop into mature SGs

From US11291705B2, “Use of caspase-3 inhibitors and caspase-3 activators in the manufacture of medicament for treating cancer and wound healing” (Technion Research & Development Foundation Limited, priority 2016, dated 2022)
